Measured values taken from patent US20240059668A1, “THIOHYDROXYPYRIDINE CHELATES” (LUMIPHORE, INC., priority 2020, published 2024).

assay: Stability testing of macrocyclic copper chelates: DTPA challenge analysed by reversed phase HPLC; format: physicochemical; conditions: approximately 1 mM complex in 100 mM Tris-HCl buffer, pH 7.5, combined one to one with 55 mM DTPA, ambient temperature, 30 minutes
Protocol: Stability testing of macrocyclic copper chelates. (FIG. 1).
Example 13. Copper complexes 27, 39, and 44 were dissolved at approximately 1 mM concentration in 100 mM Tris-HCl buffer, pH 7.5. A solution of 55 mM diethylenetriaminepentaacetic acid (DTPA), pH 7.5 was prepared. Copper complexes were analyzed by reversed phase HPLC using an Agilent 1200 Series instrument equipped with a Zorbax Eclipse XDB-C18 4.6×150 mm 5 μm column. The method used an isocratic gradient of 0.1M triethylammonium bicarbonate, pH 7.5 (Solvent A) and 10-80% acetonitrile (Solvent B) as mobile phases. A solution of copper complex and DTPA solution combined in a ratio of one to one was prepared and mixed at ambient temperature for 30 minutes prior to analysis. Admixture of DTPA and copper complexes led to variable levels of dissociation of the copper complex, as quantified by the elution of the metal free ligand at shorter retention time.

With “Copper(II) complex of 4-((2-(2-aminoethoxy)ethyl)carbamoyl)-1^6,10^6-dimercapto-2,9,11,24-tetraoxo-16,19-dioxa-3,8,12,23-tetraaza-1,10(2,5)-dipyridin-1- iumacyclotetracosaphane 1^1,10^1-dioxide, trifluoroacetate salt [Compound 44]” as the substance, how does the “stability of the copper complex in the presence of DTPA competitor (dissociation quantified by elution of the metal free ligand)” value read?
The value was “more stable in the presence of DTPA competitor than complex 39”.

Which “stability of the copper complex in the presence of DTPA competitor (dissociation quantified by elution of the metal free ligand)” value does the source give for “Copper(II) complex of 6-(2-aminoethyl)-1^6,11^6-dimercapto-2,10,12,25-tetraoxo-17,20-dioxa-3,6,9,13,24-pentaaza-1,11(2,5)-dipyridin-1-iumacyclopentacosaphane 1^1,11^1-dioxide [Compound 39]” here?
The value was “more stable than compound 27”.

Which “stability of the copper complex in the presence of DTPA competitor (dissociation quantified by elution of the metal free ligand)” value does the source give for “Copper complex of 16-(2-(4-(((S)-5-carboxy-5-(3-((S)-1,3-dicarboxypropyl)ureido)pentyl)carbamoyl)benzamido)ethyl)-1^6,11^6-dimercapto-2,10,12,20-tetraoxo-6- oxa-3,9,13,16,19-pentaaza-1,11(2,5)-dipyridin-1-iumacycloicosaphane 1^1,11^1-dioxide [Compound 27]” here?
Its value is “both are more stable than compound 27”.
